The supplement of paper PMC10307832

Experiments:
Assay in all cases: relative viability (nuclei count vs DMSO), 5 days (fraction); higher = more cells survive
[1] = compound: CCN1CCN(c2ccc(Nc3cc(N(C)C(=O)Nc4c(Cl)c(OC)cc(OC)c4Cl)ncn3)cc2)CC1 [BGJ398] + CCNC(=O)c1noc(-c2cc(C(C)C)c(O)cc2O)c1-c1ccc(CN2CCOCC2)cc1 [Luminespib] (partner 0.01 µM)
Summary of the method: (§1)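 Relative viability is defined as nuclei in treated wells over nuclei in vehicle wells. Duplicate plates were run and medians reported. Lung cancer cell lines in 1536-well plates were dosed by pin tool one day after seeding, with one drug or with a fixed anchor-drug dose plus five library-drug doses (not always all listed) in √10 steps, and nuclei were counted after 5 days.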

[2] = compound: C1=CC2=NC=CN=C2C=C1/C=C/3\C(=O)NC(=O)S3 + N=C(N)NC(=N)NCCc1ccccc1 [Phenformin] (partner 250 µM)
Summary of the method: as §1

[3] = compound: C1=CC2=NC=CN=C2C=C1/C=C/3\C(=O)NC(=O)S3 + COc1cccc2cc(-c3nc([C@H]4CC[C@H](C(=O)O)CC4)n4ncnc(N)c34)[nH]c12 [OSI-027] (partner 0.5 µM)
Summary of the method: as §1

[4] = compound: C1=CC2=NC=CN=C2C=C1/C=C/3\C(=O)NC(=O)S3 + C[C@]1(O)C[C@@H](c2nc(-c3ccc4ccc(-c5ccccc5)nc4c3)c3c(N)nccn32)C1 [Linsitinib] (partner 1 µM)
Summary of the method: as §1

Cell Line	relative viability ([1]; first compound 0.01 µM)	relative viability ([1]; first compound 0.03162 µM)	relative viability ([1]; first compound 0.1 µM)	relative viability ([1]; first compound 0.3162 µM)	relative viability ([1]; first compound 1 µM)	relative viability ([2]; first compound 0.02 µM)	relative viability ([2]; first compound 0.06325 µM)	relative viability ([2]; first compound 0.2 µM)	relative viability ([2]; first compound 0.6325 µM)	relative viability ([2]; first compound 2 µM)	relative viability ([3]; first compound 0.02 µM)	relative viability ([3]; first compound 0.06325 µM)	relative viability ([3]; first compound 0.2 µM)	relative viability ([3]; first compound 0.6325 µM)	relative viability ([3]; first compound 2 µM)	relative viability ([4]; first compound 0.02 µM)	relative viability ([4]; first compound 0.06325 µM)	relative viability ([4]; first compound 0.2 µM)	relative viability ([4]; first compound 0.6325 µM)	relative viability ([4]; first compound 2 µM)
BEN	0.376	0.402	0.33	0.376	0.597	0.253	0.3	0.247	0.275	0.272	0.306	0.287	0.288	0.289	0.275	0.812	0.922	0.899	0.843	0.93
NCI-H1666	1	0.998	0.99	1.04	0.988	0.36	0.481	0.578	0.541	0.548	0.873	0.825	0.84	0.812	0.459	0.789	0.848	0.807	0.843	0.911
LC-2-ad	0.958	1.05	0.978	1.04	1.07	0.61	0.601	0.655	0.578	0.417	0.893	0.752	0.807	0.757	0.454	0.76	0.885	0.784	0.726	0.854
SK-LU-1	0.215	0.193	0.189	0.188	0.197	0.681	0.628	0.552	0.554	0.395	0.371	0.358	0.332	0.396	0.207	1.2	1.22	1.15	1.06	0.989
COR-L 105	0.69	0.972	0.832	0.93	0.801	0.46	0.43	0.494	0.5	0.413	0.743	0.669	0.729	0.623	0.435	0.897	0.949	0.947	0.851	1.03
NCI-H1975	0.218	0.179	0.204	0.237	0.261	0.406	0.448	0.408	0.402	0.312	0.708	0.805	0.808	0.619	0.417	0.819	1.01	1.09	0.884	0.934
NCI-H1993	0.962	0.916	1.08	0.954	0.737	0.492	0.529	0.513	0.557	0.599	0.494	0.552	0.551	0.544	0.475	0.712	0.797	0.751	0.795	0.713
RERF-LC-KJ	1.23	1.25	1.32	1.26	1.31	0.399	0.467	0.406	0.392	0.418	0.571	0.569	0.704	0.606	0.332	0.82	1.03	0.894	0.811	0.853
NCI-H23	0.228	0.213	0.203	0.22	0.189	0.79	0.716	0.825	0.781	0.729	0.518	0.58	0.661	0.618	0.27	0.575	0.649	0.717	0.588	0.603
EMC-BAC-2	1.14	1.25	1.22	1.16	1.09	0.499	0.532	0.55	0.518	0.396	0.307	0.436	0.416	0.37	0.251	0.765	0.906	0.822	0.808	0.869
NCI-H2405	0.818	0.807	0.668	0.758	0.686	0.44	0.406	0.397	0.383	0.111	0.644	0.698	0.648	0.6	0.225	0.96	1.08	1.03	0.959	0.915
NCI-H358	0.449	0.268	0.394	0.372	0.289	0.41	0.382	0.356	0.283	0.149	0.869	0.753	0.768	0.623	0.228	0.776	0.764	0.754	0.647	0.74
NCI-H1944	0.687	0.714	0.787	0.722	0.716	0.187	0.188	0.199	0.204	0.155	0.412	0.395	0.427	0.385	0.258	1.18	1.22	1.22	0.944	1.12
EPLC-272H	0.29	0.235	0.21	0.716	0.451	0.259	0.302	0.371	0.26	0.297	0.303	0.264	0.307	0.256	0.287	1.09	1.25	1.25	1.1	1.26
NCI-H1915	0.675	0.826	0.852	0.688	0.784	0.354	0.415	0.378	0.371	0.375	0.679	0.71	0.727	0.674	0.603	1.1	1.18	1.11	1.12	1.08
NCI-H596	1.07	1.01	0.95	0.795	0.768	0.744	0.66	0.742	0.675	0.714	0.749	0.542	0.875	0.677	0.532	1.01	0.994	1.11	0.975	1.07

Cell Line	relative viability ([1]; first compound 0.01 µM)	relative viability ([1]; first compound 0.03162 µM)	relative viability ([1]; first compound 0.1 µM)	relative viability ([1]; first compound 0.3162 µM)	relative viability ([1]; first compound 1 µM)	relative viability ([2]; first compound 0.02 µM)	relative viability ([2]; first compound 0.06325 µM)	relative viability ([2]; first compound 0.2 µM)	relative viability ([2]; first compound 0.6325 µM)	relative viability ([2]; first compound 2 µM)	relative viability ([3]; first compound 0.02 µM)	relative viability ([3]; first compound 0.06325 µM)	relative viability ([3]; first compound 0.2 µM)	relative viability ([3]; first compound 0.6325 µM)	relative viability ([3]; first compound 2 µM)	relative viability ([4]; first compound 0.02 µM)	relative viability ([4]; first compound 0.06325 µM)	relative viability ([4]; first compound 0.2 µM)	relative viability ([4]; first compound 0.6325 µM)	relative viability ([4]; first compound 2 µM)
NCI-H322M	0.887	0.744	0.848	0.788	0.85	0.744	0.813	0.796	0.776	0.669	0.546	0.478	0.497	0.53	0.384	1.06	0.85	0.982	0.896	0.918
NCI-H2228	0.111	0.141	0.152	0.139	0.128	0.281	0.329	0.445	0.361	0.213	0.665	0.581	0.525	0.661	0.335	0.622	0.447	1.08	0.55	0.609
NCI-H647	0.138	0.107	0.157	0.184	0.176	0.587	0.56	0.591	0.384	0.437	0.531	0.84	0.633	0.532	0.515	1.13	1.51	1.41	1.1	1.08
SK-MES-1	0.8	0.784	0.843	0.799	0.844	0.623	0.697	0.713	0.626	0.645	0.658	0.467	0.715	0.577	0.392	1.04	1.25	1.09	0.95	1.04
NCI-H2085	0.308	0.485	0.564	0.498	0.422	0.747	0.721	0.716	0.671	0.65	0.75	0.847	0.82	0.827	0.635	0.807	0.886	0.826	0.806	0.969
SW 1573	0.323	0.242	0.209	0.226	0.278	0.377	0.443	0.429	0.323	0.287	0.63	0.946	0.725	0.532	0.312	0.78	0.825	0.943	0.847	0.714
NCI-H727	0.365	0.467	0.367	0.345	0.314	0.552	0.504	0.686	0.454	0.283	0.624	0.598	0.686	0.575	0.343	0.341	0.223	0.33	0.403	0.252
NCI-H441	0.453	0.346	0.318	0.383	0.371	0.856	1.06	0.84	0.755	0.327	0.742	0.695	0.759	0.669	0.405	0.473	0.399	0.653	0.57	0.508
LOU-NH91	0.34	–	0.327	0.312	0.301	0.712	0.72	0.569	0.703	0.564	0.726	0.767	0.673	0.681	0.464	0.982	1.01	0.928	0.954	0.97
NCI-H3122	0.0895	0.0973	0.0991	0.0908	0.0986	0.401	0.356	0.379	0.392	0.366	0.935	1.16	0.89	1.03	0.46	1.01	1.15	0.955	1	1.17
NCI-H460	0.0344	0.0414	0.0281	0.0308	0.0303	0.477	0.619	0.536	0.516	0.468	0.727	1	0.781	0.525	0.394	0.718	1.32	0.787	0.687	0.872
NCI-H650	0.803	0.913	0.784	0.84	0.98	0.453	0.487	0.527	0.448	0.348	0.519	0.601	0.621	0.495	0.269	1.13	0.922	1.17	0.832	0.731
NCI-H661	0.926	0.936	0.937	0.851	0.852	0.239	0.393	0.289	0.298	0.249	0.785	0.796	0.682	0.621	0.584	0.59	0.501	0.606	0.583	0.56
NCI-H1793	0.167	0.229	0.175	0.163	0.196	0.416	0.32	0.452	0.334	0.322	0.28	0.201	0.289	0.265	0.203	0.785	0.99	0.747	0.919	0.679
NCI-H1734	0.178	0.179	0.22	0.171	0.17	0.392	0.35	0.384	0.343	0.279	0.697	0.487	0.665	0.522	0.324	0.856	–	0.853	0.789	0.841
LXF-289	0.668	0.643	0.578	0.634	0.657	0.491	0.501	0.535	0.526	0.478	0.744	0.756	0.788	0.804	0.395	0.928	0.921	0.993	0.941	0.933
